Measured values reported in patent publication US8492418B2, “Method of treating schizophrenia prodrome” (Yale University, priority 2005, dated 2013).
Like-named read-outs stand apart in the source and are kept apart here.

What was measured:
[1] = test system: prodromal patients (schizophrenia prodrome)
Source text: I therefore treated 10 patients meeting criteria for the schizophrenia prodrome with the NMDA […] glycine, used alone without antipsychotic medication. […] To my knowledge, this represents the first attempt to use direct or indirect NMDA/glycine agonists for patients with the schizophrenia prodrome.
The inventor of the present invention enrolled 10 prodromal patients in an eight-week open label trial of oral glycine. The patients were seven males and three females, whose mean±sd age was 17.3±3.3 years. All ten patients met schizophrenia prodrome diagnostic criteria, attenuated positive symptom subgroup, according to the Structured Interview for Prodromal Syndromes (Miller et al., 2002). The mean Scale of Prodromal Symptoms (SOPS) total score at baseline was 39.7, and the positive and negative subscale score means were respectively 11.3 and 12.4 (Table 1).
Glycine was administered orally as powder mixed with water at a dose titrated to 0.4 g/kg BID by week two. Concomitant medications were continued so long as there had been no dose adjustments in the eight weeks prior to enrollment and the patient continued to meet prodromal symptomatic criteria at baseline. Efficacy was assessed using the Scale of Prodromal Symptoms (SOPS). The SOPS consists of 19 items, each scored 0-6, and yields a total score and positive symptom (5 items), negative symptom (six items), disorganization (4 items), and general symptom (4 items) subscale scores.
Categorical outcomes. […] These criteria required all five positive symptom ratings to be below the prodromal range (2 or below).
Group SOPS change analysis. […] Data for the placebo and olanzapine samples shown are from the published double blind randomized comparison of olanzapine vs placebo (Woods et al., 2003). Data for ethyl-EPA (an omega-3 fatty acid) are from an ongoing unpublished open label trial that follows a design nearly identical to the current glycine pilot study.
To accomplish this we modified for the one sample case the sequential monitoring method of O'Brien and Fleming that protects the overall alpha from […] due to multiple looks (Woods and McGlashan, 2002). […] Analyses were planned every 5 patients.

[2] = test system: chronic patients with persistent negative symptoms (schizophrenia); conditions: 157 chronic patients, four sites, adjunctive treatment vs placebo; cited from earlier work
[3] = test system: acutely exacerbated patients (schizophrenia); conditions: 65 acutely exacerbated patients, in addition to antipsychotic; cited from earlier work
[4] = target: glycine binding site of the NMDA receptor (Homo sapiens, UniProt Q05586); conditions: partial agonist; cited from earlier work
[5] = test system: prodromal patients (schizophrenia prodrome); assay: ongoing unpublished open label trial of ethyl-EPA, design nearly identical to the glycine pilot study; format: in vivo, human; conditions: 8 weeks, n=7
Source text: Group SOPS change analysis. […] The effect sizes observed with glycine are substantially larger than those observed in my parallel studies with other medications (Table 2). Data for the placebo and olanzapine samples shown are from the published double blind randomized comparison of olanzapine vs placebo (Woods et al., 2003). […] The very large differences between the glycine effect sizes and the placebo effect sizes provide strong support for efficacy. The large differences between the glycine effect sizes and the olanzapine effect sizes are also impressive.

[6] = test system: prodromal patients; conditions: risperidone plus cognitive therapy plus usual care; 59 patients randomized; cited from earlier work
[7] = 8 weeks, n=10, baseline score as covariate
[8] = 8 weeks, open label glycine, n=10
[9] = endpoint (LOCF) minus baseline, 8 weeks, n=10
[10] = oral glycine titrated to 0.4 g/kg BID, 8 weeks, LOCF, n=10

## NCC(=O)O [Glycine, glycine]
[1]; 8 weeks, n=10
  group SOPS change, LOCF analysis: improved significantly as a group on the total score and on all four subscales
  group SOPS change, MMRM analysis: improved significantly as a group on the total score and on 3/4 subscales
[1]; [7]
  MMRM-based within group SOPS improvement, DIS: 3.9 ± 2.2
  MMRM-based within group SOPS improvement, GEN: 4.1 ± 3.5
  MMRM-based within group SOPS improvement, NEG: 3.0 ± 5.2
  MMRM-based within group SOPS improvement, POS: 7.4 ± 3.2
  MMRM-based within group SOPS improvement, TOTAL: 18.2 ± 9.9
[1]; [8]
  SOPS LOCF within group effect size, DIS: 1.05
  SOPS LOCF within group effect size, GEN: 1.12
  SOPS LOCF within group effect size, NEG: 0.74
  SOPS LOCF within group effect size, POS: 1.10
  SOPS LOCF within group effect size, TOTAL: 1.39
[1]; 10 glycine-treated patients, 8 weeks
  conversion to psychosis: None of the glycine-treated patients converted to psychosis
[1]; O'Brien and Fleming method modified for one sample
  sequential monitoring vs historical placebo (sufficiency): crossed the decision boundary for sufficiency after 10 patients
[1]; baseline, before glycine, disorganization subscale, n=10
  SOPS DIS score, baseline mean: 6.5
[1]; baseline, before glycine, general symptom subscale, n=10
  SOPS GEN score, baseline mean: 9.5
[1]; baseline, before glycine, n=10
  SOPS TOTAL score, baseline mean: 39.7
[1]; baseline, before glycine, negative symptom subscale, n=10
  SOPS NEG score, baseline mean: 12.4
[1]; baseline, before glycine, positive symptom subscale, n=10
  SOPS POS score, baseline mean: 11.3
[1]; [9]
  SOPS DIS endpoint change, mean: −3.1
  SOPS GEN endpoint change, mean: −3.5
  SOPS NEG endpoint change, mean: −3.0
  SOPS POS endpoint change, mean: −5.7
  SOPS TOTAL endpoint change, mean: −15.3
[1]; of the seven completers, during 8 weeks on glycine
  early remission criteria met (all five positive symptom ratings 2 or below): three met early remission criteria
[1]; [10]
  SOPS DIS score, endpoint (LOCF) mean: 3.4
  SOPS GEN score, endpoint (LOCF) mean: 6.0
  SOPS NEG score, endpoint (LOCF) mean: 9.4
  SOPS POS score, endpoint (LOCF) mean: 5.6
  SOPS TOTAL score, endpoint (LOCF) mean: 24.4
[2]
  difference among treatment groups: no significant differences overall among groups

## CNCC(=O)O [sarcosine]
[3]
  separation from placebo: did

## NC1CONC1=O [D-cycloserine, 4-aminoisoxazolidin-3-one, reference compound]
[4]
  activation relative to that seen with glycine, D-alanine or D-serine: 40-60%
[2]
  difference among treatment groups: no significant differences overall among groups

## N[C@H](CO)C(=O)O [D-serine]
[3]
  separation from placebo: did not separate from placebo

## CC/C=C\C/C=C\C/C=C\C/C=C\C/C=C\CCCC(=O)OCC [Ethyl-EPA, ethyl-EPA]
[5]
  SOPS LOCF within group effect size, DIS: −0.05
  SOPS LOCF within group effect size, GEN: −0.17
  SOPS LOCF within group effect size, NEG: 0.24
  SOPS LOCF within group effect size, POS: 0.47
  SOPS LOCF within group effect size, TOTAL: 0.18

## Cc1nc2n(c(=O)c1CCN1CCC(c3noc4cc(F)ccc34)CC1)CCCC2 [risperidone]
[6]
  six month conversion to psychosis rate: 9.7%
